The numbers were not newly measured in US5989558A, “Method of using rosmarinus officinalis for treating various diseases” (priority 1997, dated 1999), which cites them from elsewhere.

Read-outs that look alike come from different tables or passages of the source.

The conditions of series [1]: 400 mg three times a day.

Regarding `Fc1ccc(C(c2ccc(F)cc2)N2CCN(C/C=C/c3ccccc3)CC2)cc1` [flunarizine], where the note is “treatment of dizziness, poor hearing, and tinnitus”, the “nausea as side effect” value is “all of the drugs cause nausea”.
Turning to `CC(=O)CCCCn1c(=O)c2c(ncn2C)n(C)c1=O` [pentoxifylline], where the note is “in vivo”, the “nausea as side effect” value is recorded as “all of the drugs cause nausea”. Moreover, in series [1] (after 60 days), the ulcers healed is recorded as 7 ulcers. Also, the further ulcer healed result in series [1] (after 120 days) was “Another ulcer healed after 120 days”. Besides, in series [1] (of 12 patients, limited by side effects), the “patients able to complete the six month program” value was 9 patients. In addition, the ulcer size reduction result in series [1] (one ulcer, after six months) was “reduced in size from 4 cm to 2 cm”.
